Format in all cases: functional, cell-based
The target in data set [1] is T1, Solute carrier organic anion transporter family member 1B1 (Homo sapiens, UniProt Q9Y6L6).
T1 sequence (Q9Y6L6 whole entry): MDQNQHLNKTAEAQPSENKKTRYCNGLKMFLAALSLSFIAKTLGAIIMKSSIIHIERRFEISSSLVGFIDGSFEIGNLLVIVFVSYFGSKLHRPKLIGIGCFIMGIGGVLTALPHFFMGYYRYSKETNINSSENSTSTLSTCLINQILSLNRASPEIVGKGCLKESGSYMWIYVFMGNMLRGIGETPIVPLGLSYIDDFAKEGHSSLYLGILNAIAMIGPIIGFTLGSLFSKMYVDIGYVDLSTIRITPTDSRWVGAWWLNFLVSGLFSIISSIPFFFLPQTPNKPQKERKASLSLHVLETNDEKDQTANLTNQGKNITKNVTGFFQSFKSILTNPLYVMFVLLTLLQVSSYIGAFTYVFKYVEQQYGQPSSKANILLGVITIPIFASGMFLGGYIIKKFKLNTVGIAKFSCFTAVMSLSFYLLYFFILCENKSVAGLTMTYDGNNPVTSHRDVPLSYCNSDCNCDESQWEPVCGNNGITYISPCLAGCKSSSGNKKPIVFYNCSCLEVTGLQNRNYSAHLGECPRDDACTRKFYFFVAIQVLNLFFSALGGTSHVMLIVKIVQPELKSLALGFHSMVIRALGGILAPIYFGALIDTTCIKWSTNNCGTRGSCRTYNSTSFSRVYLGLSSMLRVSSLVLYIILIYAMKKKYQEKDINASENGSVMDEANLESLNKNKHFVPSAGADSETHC
Put plainly: (§1) TP_TRANSPORTER: uptake in OATP-C-expressing HEK293 cells.

Data set [2] addresses T1, Solute carrier organic anion transporter family member 1B1. Put plainly: TP_TRANSPORTER: inhibition of E217betaG uptake in OATP-C-expressing HEK293 cells.
Data set [3] addresses T2, OATP-C (OATP1B1, SLCO1B1) (Homo sapiens, UniProt Q9Y6L6).
T2 sequence (Q9Y6L6 whole entry): T1 sequence (Q9Y6L6 whole entry)
Put plainly: TP_TRANSPORTER: inhibition of E217betaG uptake (DIDS: 50 uM, E217betaG: 1 uM) in OATP-C-expressing HEK293 cells. Further details: scale not given: the % may be the effect or the level left. The note with it: probe E217betaG (estradiol 17beta-glucuronide), read-out: Activity.

Substrate in data set [4]: C[C@]12CC[C@@H]3c4ccc(O)cc4CC[C@H]3[C@@H]1CC[C@@H]2O[C@@H]1O[C@H](C(=O)O)[C@@H](O)[C@H](O)[C@H]1O
The data set is described as §1.

Regarding `C=CC1=C(C)/C(=C/c2[nH]c(Cc3[nH]c(/C=C4\NC(=O)C(C)=C4C=C)c(C)c3CCC(=O)O[C@@H]3OC(C(=O)O)[C@@H](O)C(O)C3O)c(CCC(=O)O)c2C)NC1=O` (some centres undefined) [BILIRUBIN MONOGLUCURONIDE], the Activity entry in data set [1] was “substrate [+]”. In the case of `O=C1OC(c2ccc(O)c(S(=O)(=O)O)c2)(c2ccc(O)c(S(=O)(=O)O)c2)c2c(Br)c(Br)c(Br)c(Br)c21` [SULFOBROMOPHTHALEIN SODIUM], in data set [2], the Ki (in general, the equilibrium dissociation constant of an inhibitor or competing ligand from its target) worked out at 44 nM.

In the case of `O=S(=O)(O)c1cc(N=C=S)ccc1/C=C/c1ccc(NC=S)cc1S(=O)(=O)O`, the activity at 50 µM in data set [3] is 6%.

B1: Solute carrier organic anion transporter family member 1B1 (Homo sapiens) (protein)
chain: T1 sequence (Q9Y6L6 whole entry)
Turning to B1, the Km (as a rule, the concentration of substrate that gives half-maximal velocity) in data set [4] is 8.2 µM.

Values taken from ChEMBL document CHEMBL2074210, “A novel human organic anion transporting polypeptide localized to the basolateral hepatocyte membrane” (Am J Physiol Gastrointest Liver Physiol, 2000).
